The values below come from patent US5399681A, “Method for preparing N^6 -substituted NAD, NADP or FAD” (Gesellschaft fur Biotechnologische Forschung mbH (GBF), priority 1986, dated 1995).

The target of experiment [1] is T1, yeast glucose 6-phosphate dehydrogenase (Saccharomyces cerevisiae, UniProt P11412).
T1 sequence (P11412 1-505): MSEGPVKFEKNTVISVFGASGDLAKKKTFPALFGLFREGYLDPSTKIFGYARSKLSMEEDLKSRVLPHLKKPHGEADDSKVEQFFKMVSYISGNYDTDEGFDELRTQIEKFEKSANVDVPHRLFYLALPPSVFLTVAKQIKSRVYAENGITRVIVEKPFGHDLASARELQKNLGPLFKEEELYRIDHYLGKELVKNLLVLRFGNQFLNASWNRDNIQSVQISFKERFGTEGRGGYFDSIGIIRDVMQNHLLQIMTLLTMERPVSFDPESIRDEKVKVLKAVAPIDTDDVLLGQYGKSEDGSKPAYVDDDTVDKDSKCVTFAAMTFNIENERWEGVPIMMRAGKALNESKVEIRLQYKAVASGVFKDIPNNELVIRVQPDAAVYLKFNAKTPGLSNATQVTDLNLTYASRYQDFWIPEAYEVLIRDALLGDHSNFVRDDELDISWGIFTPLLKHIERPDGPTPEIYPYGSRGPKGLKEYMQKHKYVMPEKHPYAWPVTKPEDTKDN
As to the kind of experiment: Enzymatic reducibility with the reaction catalyzed by yeast glucose 6-phosphate dehydrogenase. The experiment is classed as biochemical. The following applies: for Reducibility %: 0.05M triethanolamine/HCl pH 8.0, room temperature, 5.5 mM MgCl2, 4.5 mM glucose-6-phosphate, 0.1 mM coenzyme free or polymer-bound, 30 μg glucose-6-phosphate dehydrogenase. As to the method: The enzymatic reducibility of the water-soluble polymer-bound N^6 -(2-aminoethyl)-NADP derivatives was determined compared with N^6 -(2-aminoethyl)-NADP with the reaction catalyzed by yeast glucose 6-phosphate dehydrogenase under the following conditions:
0.05M triethanolamine/HCl, pH 8.0, room temperature
4.5 mM glucose-6-phosphate
0.1 mM N^6 -(2-aminoethyl)-NADP (free or polymer-bound)
30 μg glucose-6-phosphate dehydrogenase
Note: For the N^6 -(2-aminoethyl)NADP and ^6 -(2-aminoethyl)-NADPH derivatives ε267 =21000 M^-1 cm^-1 and ε340 =6220 M^-1 cm^-1 were assumed as extinction coefficients.

Experiment [2] addresses T2, yeast alcohol dehydrogenase (Saccharomyces cerevisiae, UniProt P00330).
T2 sequence (P00330 1-348): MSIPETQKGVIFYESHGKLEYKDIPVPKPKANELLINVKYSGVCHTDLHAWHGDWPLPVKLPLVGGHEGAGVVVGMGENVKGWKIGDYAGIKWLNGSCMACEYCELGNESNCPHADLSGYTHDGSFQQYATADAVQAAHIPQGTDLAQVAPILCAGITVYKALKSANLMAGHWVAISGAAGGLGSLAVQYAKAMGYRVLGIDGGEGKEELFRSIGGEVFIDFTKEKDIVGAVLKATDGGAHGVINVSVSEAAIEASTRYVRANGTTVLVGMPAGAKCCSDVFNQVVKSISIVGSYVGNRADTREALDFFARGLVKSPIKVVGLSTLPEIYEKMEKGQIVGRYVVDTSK
As to the kind of experiment: Enzymatic reducibility with the reaction catalyzed by yeast alcohol dehydrogenase. It counts as biochemical. The following applies: for Reducibility %: 0.1M tris/HCl pH 8.2, room temperature, 0.1M ethanol, 7 mM semicarbazide/HCl, 0.1 mM coenzyme free or polymer-bound, 0.3 mg alcohol dehydrogenase. As for the experimental part:
The enzymatic reducibility of the water-soluble polymer-bound N^6 -(2-aminoethyl)-NAD derivatives was determined compared with N^6 -(2-aminoethyl)-NAD with the reaction catalyzed by yeast alcohol dehydrogenase under the following conditions:
0.1M tris/HCl, pH 8.2, room temperature
0.1 mM N^6 -(2-aminoethyl)-NAD
0.3 mg alcohol dehydrogenase
Note: For N^6 -(2-aminoethyl)-NAD and N^6 -(2-aminoethyl)-NADH derivatives ε267 =21000 M^-1 cm^-1 and ε340 =6220 M^-1 cm^-1 as extiction coefficients.

For the compound “poly-(divinyl ether/maleic acid)-N^6 -(2-aminoethyl)-NADP”, the Reducibility % in experiment [1] is reported as 63%.

`NCCNc1ncnc2c1ncn2[C@@H]1O[C@H](COP(=O)(O)OP(=O)([O-])OC[C@H]2O[C@@H]([n+]3cccc(C(N)=O)c3)[C@H](O)[C@@H]2O)[C@@H](O)[C@H]1OP(=O)(O)O` [N^6-(2-aminoethyl)-NADP]: the Reducibility % in experiment [1] is 100%. The “Enzymatic reduction to N^6 -(2-aminoethyl)-NADPH (in words)” value in experiment [1] (catalyzed by beer yeast glucose-6-phosphate dehydrogenase) is recorded as “Quantitative reduction”.

Regarding “PEG (Mr =20000)-N^6 -(2-aminoethyl)-NADP”, in experiment [1], the Reducibility % came out at 95%.

Regarding “polyvinylpyrrolidone N^6 -(2-aminoethyl)-NAD”, the Reducibility % in experiment [2] was 90%.

Regarding “poly-(methylvinyl ether/maleic acid)-N^6 -(2-aminoethyl)-NADP”, in experiment [1], the Reducibility % worked out at 60%.

Take “poly-(divinyl ether/maleic acid)-N^6 -(2-aminoethyl)-NAD”: the Reducibility % in experiment [2] worked out at 60%.

Turning to “poly-(ethylene/maleic acid)-N^6 -(2-aminoethyl)-NAD”, in experiment [2], the Reducibility % is recorded as 60%.

In experiment [2], “poly-(methylvinyl ether/maleic acid)-N^6 -(2-aminoethyl)-NAD” displayed a Reducibility % of 70%.

In experiment [1], PEG (Mr =4000)-N^6 -(2-aminoethyl)-NADP had a Reducibility % of 95%.

For the compound dextran-N^6 -(2-aminoethyl)-NAD, in experiment [2], the Reducibility % is on record as 90%.

Consider `NCCNc1ncnc2c1ncn2[C@@H]1O[C@H](COP(=O)(O)OP(=O)([O-])OC[C@H]2O[C@@H]([n+]3cccc(C(N)=O)c3)[C@H](O)[C@@H]2O)[C@@H](O)[C@H]1O` [N^6-(2-aminoethyl)-NAD], for which, in experiment [2], the Reducibility % is listed as 100%. Also, the “Enzymatic reduction to N^6 -(2-aminoethyl)-NADH (in words)” value in experiment [2] (catalyzed by beer yeast alcohol dehydrogenase) is “Quantitative reduction”.

For “poly-(ethylene/maleic acid)-N^6 -(2-aminoethyl)-NADP”, the Reducibility % in experiment [1] stood at 50%.

Take “polyethylene glycol N^6 -(2-aminoethyl)-NAD”: in experiment [2], the Reducibility % is recorded as 90%.
